Source: US5763477A, “Taxane derivatives from 14-β-hydroxy-10 deacetylbaccatin III” (Dr. Reddy's Research Foundation, priority 1994, dated 1998)
Read-outs that look alike come from different tables or passages of the source. One block for each molecule: values may come before it.

Assays:
Type in all cases: cell-based
T47D = test: In vitro anti-cancer activity, breast cancer, cell line T47D; conditions: Homo sapiens
Text: (§1) In particular, these compounds are related to taxol, the recently FDA approved anticancer drug, and its various analogues having an additional hydroxyl group at C-14 position of the taxane skeleton. […] Selectivity and sensitivity were particularly good at 0.01 to 1 μm concentrations at G150 level (concentrations of the agent in the assay that produced 50 0 growth inhibition).
(§2) IN VITRO ANTI-CANCER ACTIVITY DATA OF 7,10-DIMETHYLACETONIDO 14-HYDROXY TAXOL (Compound 23) ON LEUKEMIA, OVARIAN AND BREAST CANCER CELL LINES IN COMPARISON TO TAXOL
(§3) All the values are given in μm concentrations:
(§4) The notations GI50, TGI refer to the concentrations of the agent in the assay that produced 50% growth inhibition, total growth inhibition respectively.

SW 620 = test: In vitro anti-cancer activity, colon cancer, cell line SW 620; conditions: Homo sapiens
Text: as §1, §2, §3, §4

H5578T = test: In vitro anti-cancer activity, breast cancer, cell line H5578T
Text: as §1, §2, §3, §4

MCF7 = test: In vitro anti-cancer activity, breast cancer, cell line MCF7; conditions: Homo sapiens
Text: as §1, §2, §3, §4

Molt-4 = test: In vitro anti-cancer activity, leukemia, cell line Molt-4; conditions: Homo sapiens
Text: as §1, §2, §3, §4

IGR-OV1 = test: In vitro anti-cancer activity, ovarian cancer, cell line IGR-OV1; conditions: Homo sapiens, IGROV-1
Text: as §1, §2, §3, §4

OVCAR4 = test: In vitro anti-cancer activity, ovarian cancer, cell line OVCAR4; conditions: Homo sapiens, OVCAR-4
Text: as §1, §2, §3, §4

HCT 116 = test: In vitro anti-cancer activity, colon cancer, cell line HCT 116; conditions: Homo sapiens
MDA-N = test: In vitro anti-cancer activity, breast cancer, cell line MDA-N; conditions: Homo sapiens
Text: as §1, §2, §3, §4

OVCAR3 = test: In vitro anti-cancer activity, ovarian cancer, cell line OVCAR3; conditions: Homo sapiens, OVCAR-3
Text: as §1, §2, §3, §4

RPMI-8226 = test: In vitro anti-cancer activity, leukemia, cell line RPMI-8226; conditions: Homo sapiens
Text: as §1, §2, §3, §4

[1] = tested on: leukemia, colon cancer and ovarian cancer cell lines; test: Selectivity and sensitivity (National Cancer Institute protocols); conditions: towards leukemia
Text: as §1

OVCAR5 = test: In vitro anti-cancer activity, ovarian cancer, cell line OVCAR5; conditions: Homo sapiens, OVCAR-5
Text: as §1, §2, §3, §4

MDA-MB 231 = test: In vitro anti-cancer activity, breast cancer, cell line MDA-MB 231; conditions: Homo sapiens
Text: as §1, §2, §3, §4

HL60 = test: In vitro anti-cancer activity, leukemia, cell line HL60; conditions: Homo sapiens, HL-60
Text: as §1, §2, §3, §4

BT 549 = test: In vitro anti-cancer activity, breast cancer, cell line BT 549; conditions: Homo sapiens
Text: as §1, §2, §3, §4

SR = test: In vitro anti-cancer activity, leukemia, cell line SR; conditions: Homo sapiens
Text: as §1, §2, §3, §4

HCT 15 = test: In vitro anti-cancer activity, colon cancer, cell line HCT 15; conditions: Homo sapiens
[2] = tested on: three leukemia cell lines; test: Activity on three leukemia cell lines (National Cancer Institute protocols)
Text: as §1

HT-29 = test: In vitro anti-cancer activity, colon cancer, cell line HT-29; conditions: Homo sapiens
KM12 = test: In vitro anti-cancer activity, colon cancer, cell line KM12; conditions: Homo sapiens
MDA-MB 435 = test: In vitro anti-cancer activity, breast cancer, cell line MDA-MB 435; conditions: Homo sapiens
Text: as §1, §2, §3, §4

K-562 = test: In vitro anti-cancer activity, leukemia, cell line K-562; conditions: Homo sapiens, K562
Text: as §1, §2, §3, §4

[3] = tested on: three ovarian cancer cell lines; test: Activity on three ovarian cancer cell lines (National Cancer Institute protocols)
Text: as §1

[4] = breast cancer, read-out: TGI (total growth inhibition)
[5] = read-out: TGI (total growth inhibition)

GI50 (T47D; breast cancer, read-out: GI50): 158 nM | GI50 (SW 620; colon cancer, SW 620, read-out: GI50): 131 nM | GI50 (H5578T; breast cancer, H5578T, read-out: GI50): 137 nM | GI50 (MCF7; breast cancer, MCF7, read-out: GI50): 70 nM | GI50 (Molt-4; leukemia, Molt-4, read-out: GI50): 267 nM | GI50 (IGR-OV1; ovarian cancer, IGR-OV1, read-out: GI50): 66 nM | GI50 (OVCAR4; ovarian cancer, OVCAR4, read-out: GI50): 1860 nM | GI50 (HCT 116; colon cancer, HCT 116, read-out: GI50): 228 nM | GI50 (MDA-N; breast cancer, read-out: GI50): 33 nM | GI50 (OVCAR3; ovarian cancer, OVCAR3, read-out: GI50): 131 nM | GI50 (RPMI-8226; leukemia, read-out: GI50): 57 nM | GI50 (OVCAR5; ovarian cancer, OVCAR5, read-out: GI50): 770 nM | GI50 (MDA-MB 231; breast cancer, MDA-MB 231, read-out: GI50): 500 nM | GI50 (HL60; leukemia, HL60, read-out: GI50): 44 nM | GI50 (BT 549; breast cancer, BT 549, read-out: GI50): 443 nM | GI50 (SR; leukemia, read-out: GI50): 84 nM | GI50 (HCT 15; colon cancer, HCT 15, read-out: GI50): 2140 nM | GI50 (HT-29; colon cancer, read-out: GI50): 79 nM | GI50 (KM12; colon cancer, read-out: GI50): 77 nM | GI50 (MDA-MB 435; breast cancer, MDA-MB 435, read-out: GI50): 30 nM | GI50 (K-562; leukemia, K-562, read-out: GI50): 247 nM
Structure (SMILES): CC(=O)O[C@@]12CO[C@@H]1C[C@@H]1OC(C)(C)O[C@H]3C(=O)[C@@]1(C)[C@@H]2[C@H](OC(=O)c1ccccc1)[C@]1(O)[C@@H](O)[C@H](OC(=O)[C@H](O)[C@@H](NC(=O)c2ccccc2)c2ccccc2)C(C)=C3C1(C)C [Compound 23, 7,10-dimethyl acetonido-14-hydroxy taxol]
IC (total growth inhibition) (T47D; [4]): 17.7 µM | IC (total growth inhibition) (H5578T; breast cancer, H5578T, read-out: TGI (total growth inhibition)): 0.89 µM | IC (total growth inhibition) (MCF7; breast cancer, MCF7, read-out: TGI (total growth inhibition)): > 30 µM | IC (total growth inhibition) (MDA-N; [4]): 0.12 µM | selectivity and sensitivity [1]: good selectivity and sensitivity | IC (total growth inhibition) (MDA-MB 231; breast cancer, MDA-MB 231, read-out: TGI (total growth inhibition)): > 30 µM | IC (total growth inhibition) (BT 549; breast cancer, BT 549, read-out: TGI (total growth inhibition)): 11.2 µM | IC50 [2]: < 100 nM | IC (total growth inhibition) (MDA-MB 435; breast cancer, MDA-MB 435, read-out: TGI (total growth inhibition)): 0.12 µM | IC50 [3]: < 1000 nM

Structure (SMILES): CC(=O)O[C@H]1C(=O)[C@@]2(C)[C@H]([C@H](OC(=O)c3ccccc3)[C@]3(O)C[C@H](OC(=O)[C@H](O)[C@@H](NC(=O)c4ccccc4)c4ccccc4)C(C)=C1C3(C)C)[C@]1(OC(C)=O)CO[C@@H]1C[C@@H]2O [Taxol, reference compound]
GI50 (T47D): 109 nM | TGI (total growth inhibition) (T47D; [5]): 1000 nM | GI50 (SW 620; SW-620): 20 nM | GI50 (H5578T): 12 nM | TGI (total growth inhibition) (H5578T; [5]): 150 nM | GI50 (MCF7; MCF7): 9 nM | IC (total growth inhibition) (MCF7; MCF7, read-out: TGI (total growth inhibition)): 1 µM | GI50 (Molt-4; MOLT-4): 53 nM | GI50 (IGR-OV1): 28 nM | GI50 (OVCAR4): 380 nM | GI50 (HCT 116; HCT-116): 19 nM | GI50 (MDA-N): 4 nM | TGI (total growth inhibition concentration) (MDA-N; [5]): 15 nM | GI50 (OVCAR3): 22 nM | GI50 (RPMI-8226): 6 nM | GI50 (OVCAR5): 75 nM | GI50 (MDA-MB 231; MDA-MB-231): 100 nM | IC (total growth inhibition) (MDA-MB 231; MDA-MB-231, read-out: TGI (total growth inhibition)): 0.67 µM | GI50 (HL60): 10 nM | GI50 (BT 549; BT-549): 60 nM | IC (total growth inhibition) (BT 549; BT-549, read-out: TGI (total growth inhibition)): 0.7 µM | GI50 (SR): 33 nM | GI50 (HCT 15; HCT-15): 570 nM | GI50 (HT-29): 8 nM | GI50 (KM12): 16 nM | GI50 (MDA-MB 435; MDA-MB-435): 6 nM | IC (total growth inhibition) (MDA-MB 435; MDA-MB-435, read-out: TGI (total growth inhibition)): 0.025 µM | GI50 (K-562): 15 nM
